Measurements published in patent US20250099420A1, “SMALL MOLECULE MODULATORS OF GPR139 COMPLEX” (University of Florida Research Foundation, Incorporated, priority 2022, published 2025).
Like-named read-outs stand apart in the source and are kept apart here.

Legend:
[1] = tested on: parental HEK cells; assay: HEK parental Agonist Counterscreen Assay (non-transfected cells); type: cell-based; conditions: for Averaged Max % Response (±St. Dev.): activity relative to known control
Source text: The high control for the agonist counterscreen was Forskolin not acetylcholine.

[2] = molecular target: T1, GPR139 (Homo sapiens, UniProt Q6DWJ6); assay: GPR139 Agonist titration / agonist counterscreen assay (calcium detection, HEK-GPR139 cells); type: cell-based; set-up: expressed in transfected cells; host or cells: HEK Aequorin cells, Maxcyte transient transfection; conditions: GPR139 Agonist Activity; for Averaged Max % Response (±St. Dev.): activity relative to known control; for EC50: read-out: EC50
T1 sequence (Q6DWJ6 1-353): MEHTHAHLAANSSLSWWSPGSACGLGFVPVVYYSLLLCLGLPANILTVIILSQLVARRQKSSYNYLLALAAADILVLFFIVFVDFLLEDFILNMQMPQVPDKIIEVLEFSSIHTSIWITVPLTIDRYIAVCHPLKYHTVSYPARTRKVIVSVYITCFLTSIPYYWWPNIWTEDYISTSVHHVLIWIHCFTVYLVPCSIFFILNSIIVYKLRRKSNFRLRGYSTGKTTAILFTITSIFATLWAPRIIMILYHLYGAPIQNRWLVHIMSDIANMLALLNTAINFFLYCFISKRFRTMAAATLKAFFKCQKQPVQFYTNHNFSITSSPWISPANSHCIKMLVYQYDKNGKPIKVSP
Method: GPR activity was assessed using a calcium detection assay. […] Negative control samples were treated with DMSO. […] Intracellular calcium was measured using Calcium 5.

[3] = HEK Agonist Activity section of Table 4 (parental HEK counterscreen)
[4] = values printed in E-notation without unit
[5] = Homo sapiens, HEK293, HEK Agonist Activity section of Table 4 (parental HEK counterscreen)
[6] = Homo sapiens, HEK293, HEK Agonist Activity, parental non-transfected HEK cells
[7] = HEK Agonist Activity, parental non-transfected HEK cells

Row | SMILES | Lipophilic Efficiency (logD) ([1]; HEK Agonist Activity section) | Lipophilic Efficiency (logP) ([1]; HEK Agonist Activity section) | Averaged Max % Response (±St. Dev.) ([1]; HEK Agonist Activity section) [%] | Averaged Max % Response (±St. Dev.) [2] [%] | Lipophilic Efficiency (logD) ([2]; based on logD) | Lipophilic Efficiency (logP) ([2]; based on logP) | Hill Slope ([2]; fitted dose-response curve) | Efficiency Ligand ([2]; ligand efficiency) | EC50 [2, 4] [µM] | EC50 [1, 5] [µM] | further results
1 | COc1ccc(CCNC(=O)c2cncc(-c3csc4ccccc34)c2)cc1 [SR-01000654639] | 0.64 | 0.64 | 1.22 ± 5.69 | 99.13 ± 2.27 | 2.51 | 2.51 | 1.05 | 0.34 | 0.191 | – | EC50 [1, 3]: > 14 µM
2 | COc1ccc(CCCC(=O)c2cccc(-c3ccc(OC)cc3)c2)cc1 [SR-01000655128] | 1.68 | 1.68 | 0.74 ± 3.27 | 106.36 ± 3.74 | 3.70 | 3.70 | 0.50 | 0.36 | – | > 14.1 | –
3 | COCC(=O)Oc1c(Sc2c(F)c(F)c(F)c(F)c2F)c(C)nn1C(C)(C)C [SR-01000906953] | 1.23 | 1.23 | 192.43 ± 25.16 | 95.58 ± 3.98 | 3.16 | 3.16 | 1.02 | 0.36 | 0.0681 | – | Hill Slope ([1]; HEK Agonist Activity section): 9.35; EC50 [1, 3]: 5.7 µM
4 | CCOc1ccc(C(=O)NCCn2ccc3ccccc32)cc1OCC [SR-01000907288] | – | – | – | 110.51 ± 12.41 | 5.58 | 5.58 | – | 0.49 | – | – | Lipophilic Efficiency (logD) ([1]; HEK Agonist Activity): 1.28; Lipophilic Efficiency (logP) ([1]; HEK Agonist Activity): 1.28; Averaged Max % Response (±St. Dev.) ([1]; HEK Agonist Activity): 14.88 ± 7.51%; EC50 [1, 6]: > 14.1 µM
5 | COc1ccccc1OCC(=O)NCCc1ccc2c(c1)CCCN2C [SR-01000911654] | – | – | – | 102.69 ± 7.41 | 4.95 | 4.94 | 0.31 | 0.44 | 0.0079 | – | Lipophilic Efficiency (logD) ([1]; HEK Agonist Activity): 1.69; Lipophilic Efficiency (logP) ([1]; HEK Agonist Activity): 1.69; Averaged Max % Response (±St. Dev.) ([1]; HEK Agonist Activity): −5.46 ± 4.05%; EC50 [1, 6]: > 14.1 µM
6 | O=C(NCCS(=O)(=O)N1CCc2ccccc2C1)C(c1ccccc1)c1ccccc1 [SR-01000911742] | 1.49 | 1.49 | −12.80 ± 5.17 | 93.88 ± 11.00 | – | – | – | – | – | > 14.1 | Efficiency Ligand [2]: 0.25; Hill Slope [2]: 0.32; Lipophilic Efficiency (logD) [2]: 2.28; Lipophilic Efficiency (logP) [2]: 2.28; EC50 ([2]; HEK-GPR139 cells): 2.3 µM
7 | COc1ccc(NC(=O)NCC2CC(=O)N(c3ccccc3)C2)cc1 (stereo not drawn) [SR-01000912290] | – | – | – | 103.55 ± 8.13 | 6.11 | 6.11 | 1.13 | 0.44 | 0.0143 | – | Lipophilic Efficiency (logD) ([1]; HEK Agonist Activity): 3.12; Lipophilic Efficiency (logP) ([1]; HEK Agonist Activity): 3.12; Averaged Max % Response (±St. Dev.) ([1]; HEK Agonist Activity): 20.29 ± 5.75%; EC50 [1, 6]: > 14.1 µM
8 | Cc1ccc(SCC(=O)Nc2nnc(-c3ccc(Cl)cc3)o2)cc1 [SR-01000913573] | 0.84 | 0.84 | 8.58 ± 4.44 | 186.79 ± 37.86 | 2.75 | 2.75 | – | 0.39 | > 0.174 | – | EC50 [1, 3]: > 14.1 µM
9 | O=c1nc(SCc2ccccc2F)c2c([nH]1)CCC2 [SR-01000914970] | 2.03 | 2.02 | −5.66 ± 4.95 | 101.00 ± 9.27 | 3.98 | 3.97 | 0.53 | 0.50 | 0.158 | – | EC50 [1, 3]: > 14.1 µM
10 | COc1ccccc1-c1nnc(NC(=O)Cc2ccc(C)cc2C)o1 [SR-01000915644] | 1.25 | 1.25 | −2.94 ± 0.56 | 98.09 ± 3.30 | 3.69 | 3.69 | 0.31 | 0.41 | 0.051 | > 14.1 | –
11 | Cc1cccc(COc2coc(COc3nccn3C)cc2=O)c1 [SR-01000916033] | 2.68 | 2.68 | 25.93 ± 6.51 | 104.22 ± 8.56 | 5.04 | 5.04 | 0.34 | 0.42 | 0.0619 | > 14.1 | –
12 | COc1ccc(CCC(=O)Nc2ccc(OC)c(N3CCCC3=O)c2)cc1 [SR-01000916271] | 2.35 | 2.35 | 29.38 ± 9.84 | 111.55 ± 2.57 | 4.82 | 4.82 | 0.34 | 0.38 | 0.0479 | > 14.1 | –
13 | O=C1CCCCN1c1cccc(NS(=O)(=O)c2cc(Cl)ccc2Cl)c1 [SR-01000916375] | 1.86 | 1.41 | −1.52 ± 2.20 | 91.29 ± 4.98 | – | – | – | – | – | > 14.1 | Efficiency Ligand [2]: 0.36; Hill Slope [2]: 0.68; Lipophilic Efficiency (logD) [2]: 3.43; Lipophilic Efficiency (logP) [2]: 2.99; EC50 ([2]; HEK-GPR139 cells): 0.373 µM
14 | COCCn1c(C)c(C(=O)NC(C)CCc2ccccc2)c2nc3ccccc3nc21 (stereo not drawn) [SR-01000918134] | 0.66 | 0.66 | −11.92 ± 3.45 | 116.95 ± 4.02 | 3.05 | 3.05 | – | 0.33 | – | > 14.1 | –
15 | CCn1c(=O)c([N+](=O)[O-])c(NCCc2ccc(OC)cc2)c2ccccc21 [SR-01000918303] | 2.37 | 2.37 | −6.52 ± 9.86 | 84.68 ± 8.82 | 4.29 | 4.29 | 0.73 | 0.35 | 0.166 | – | EC50 [1, 3]: > 14.1 µM
16 | COc1ccc(C2(C)NC(=O)N(CC(=O)Nc3cc(C)ccc3C)C2=O)cc1 (stereo not drawn) [SR-01000918716] | – | – | – | 111.04 ± 7.77 | 5.74 | 5.74 | – | 0.43 | – | – | Hill Slope ([1]; HEK Agonist Activity): 0.85; Lipophilic Efficiency (logD) ([1]; HEK Agonist Activity): 2.34; Lipophilic Efficiency (logP) ([1]; HEK Agonist Activity): 2.34; Averaged Max % Response (±St. Dev.) ([1]; HEK Agonist Activity): 92.04 ± 16.23%; EC50 [1, 7]: 5.5 µM
17 | COc1ccc(C2(C)NC(=O)N(CC(=O)NC3CCCC3)C2=O)cc1 (stereo not drawn) [SR-01000918718] | – | – | – | 106.93 ± 8.46 | 6.47 | 6.47 | 0.93 | 0.43 | 0.0199 | – | Lipophilic Efficiency (logD) ([1]; HEK Agonist Activity): 3.62; Lipophilic Efficiency (logP) ([1]; HEK Agonist Activity): 3.62; Averaged Max % Response (±St. Dev.) ([1]; HEK Agonist Activity): 16.28 ± 3.44%; EC50 [1, 7]: > 14.1 µM
18 | C=C1CC(C)(c2ccc(OC)cc2)C(=C)C1CC(=O)CC1CCCCC1 (stereo not drawn) [SR-01000918719] | 3.17 | 3.17 | 19.77 ± 4.52 | 94.25 ± 9.34 | 5.17 | 5.17 | 0.65 | 0.37 | – | > 14.1 | –
19 | COc1ccc(C2(C)NC(=O)N(CC(=O)NCc3ccc(F)cc3)C2=O)cc1 (stereo not drawn) [SR-01000918720] | 3.10 | 3.10 | 24.77 ± 3.77 | 107.14 ± 13.14 | 5.56 | 5.56 | 0.42 | 0.37 | 0.0489 | > 14.1 | –
